IC50 data for 2 compounds are collected here from ChEMBL document CHEMBL1201862, “PubChem BioAssay data set” (2004).

Calls of active or inactive are those of the source. No stated cut-off is given here; in the data, actives have a measured IC50 and inactives only a lower limit.

The target of this assay is Envelope glycoprotein gp160 (Human immunodeficiency virus 1, UniProt Q6QLK5). Put plainly: inhibitors of HIV fusion peptide binding, primary screen, biochemical, uHTS, fluorescence dequenching (AID 1986).
Sequence of Envelope glycoprotein gp160 (Q6QLK5 whole entry, the tested form may be a part): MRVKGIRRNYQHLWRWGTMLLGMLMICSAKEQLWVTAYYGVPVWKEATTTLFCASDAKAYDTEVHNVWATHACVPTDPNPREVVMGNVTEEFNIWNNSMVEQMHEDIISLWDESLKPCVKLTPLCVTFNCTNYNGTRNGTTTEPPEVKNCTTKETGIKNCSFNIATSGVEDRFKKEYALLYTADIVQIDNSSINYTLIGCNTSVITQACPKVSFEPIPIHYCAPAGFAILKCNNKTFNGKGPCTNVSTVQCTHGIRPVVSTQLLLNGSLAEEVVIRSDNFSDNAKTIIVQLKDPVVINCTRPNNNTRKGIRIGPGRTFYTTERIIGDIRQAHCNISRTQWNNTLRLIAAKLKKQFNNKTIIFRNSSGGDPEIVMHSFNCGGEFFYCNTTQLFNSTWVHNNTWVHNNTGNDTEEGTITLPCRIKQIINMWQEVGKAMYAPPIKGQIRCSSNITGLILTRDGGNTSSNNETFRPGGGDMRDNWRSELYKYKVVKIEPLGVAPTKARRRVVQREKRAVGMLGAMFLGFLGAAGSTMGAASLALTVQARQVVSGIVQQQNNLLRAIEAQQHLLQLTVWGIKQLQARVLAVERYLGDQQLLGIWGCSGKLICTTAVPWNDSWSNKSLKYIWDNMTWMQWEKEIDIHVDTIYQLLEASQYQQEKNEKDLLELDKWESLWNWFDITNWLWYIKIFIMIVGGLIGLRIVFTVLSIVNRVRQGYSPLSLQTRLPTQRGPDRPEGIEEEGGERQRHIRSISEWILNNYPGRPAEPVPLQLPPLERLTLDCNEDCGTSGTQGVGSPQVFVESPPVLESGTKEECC

For `O=C(O)CSCC(=O)N(Cc1ccccc1)c1nc(-c2ccccc2)c(-c2ccccc2)s1`, the half-maximal inhibitory concentration (IC50) (as a rule, the concentration that gives 50% inhibition) is 13.3 µM (active). The result for `COc1ccc(NC(=O)c2cnn3c(O)cc(C4CCN(C(=O)OC(C)(C)C)CC4)nc23)cc1Cl` reads 16.6 µM (active).
